Measured values published in US9765082B2, “Crystalline form of tiotropium bromide with lactose” (EUTICALS SPA, priority 2014, dated 2017).

Tests used:
[1] = Solid-state change of Tiotropium Bromide monohydrate on heating, by DRX; format: physicochemical; conditions: 40° C. at 50% UR for 72 hours, FIGS. 4 and 4A
Protocol: FIGS. 4 and 4A show the DRX spectra of a Tiotropium Bromide monohydrate before and after the heating at 40° C. at 50% UR for 72 hours.
In fact, this is an equilibrium that is driven by the relative humidity of the environment. […] See the enclosed DRX spectra of a Tiotropium Bromide monohydrate before and after the above described treatment (FIGS. 4 and 4A).

[2] = 40° C. for few hours; literature data; cited from earlier work
[3] = Stability of the crystalline form on storage, analyzed by DRX (powder); format: physicochemical; conditions: particularly polyethylene bag as primary packaging; driven by relative humidity
Text: X-Ray Diffraction spectra were registered by means of diffractometer (Rigaku-D-Max) from a start angle [½ 2-theta] of 5.000 to 60.000. The diffraction diagrams were obtained employing a Cu anode (Kα=1,54060 Å and Kα=1,54439 Å). The HPLC method utilized to check the quality of Tiotropium Bromide in the examined samples is the same as described in the European Pharmacopoeia 7.0.

Row | Structure (SMILES) | Solid state after heating (DRX) [1] | Solid state after mild heating [2] | Crystalline form in the same storage conditions [3]
1 | C[N+]1(C)[C@@H]2C[C@@H](OC(=O)C(O)(c3cccs3)c3cccs3)C[C@H]1[C@@H]1O[C@@H]12 [Tiotropium Bromide monohydrate] | changes into the corresponding anhydrous form | easily transformed | 
2 | C[N+]1(C)[C@@H]2C[C@@H](OC(=O)C(O)(c3cccs3)c3cccs3)C[C@H]1[C@@H]1O[C@@H]12.[Br-] [Tiotropium Bromide, Tiotropium bromide] |  |  | may absorb or lose water, thus changing the crystalline form
